Measurements: patent publication US20070009495A1, “Method for treating or preventing systemic inflammation in formula-fed infants” (priority 2005, published 2007)

What was measured:
Type in all cases: in vivo, Sprague-Dawley infant rats
CINC-1 = CINC-1 peptide production by ELISA in rat pup tissues
Text: This example describes the materials and methods necessary to show the effect of LGG on formula-fed neonatal rat pups. In two separate experiments, ten Sprague-Dawley (Taconic, Germantown, N.Y.) infant rats were randomly assigned to two gastrostomy feeding groups with five rats per group. Gastrostomy feeding, using the rat infant “pup-in-the-cup” model, began on day 7 of life of the rat pups. The gastrostomy feeding tubes were constructed from 14-cm sections of polyethylene tubing that were inserted into the stomach of the pups. This is a commonly used model in studies of developmental nutrition when it is important to manipulate nutritional composition in the absence of maternal feedings. The gastrostomy placement was done under isoflurane anesthesia. Timer-controlled syringe pumps were connected to the feeding tubes and were set to feed the rats for the first 20 minutes of every hour at a weight-dependent flow rate. Five mother-reared rats of the same age were used as reference controls.
During a 2-day acclimation period, the gastrostomy-fed rat pups were fed with rat milk substitute (RMS). The protein component of the RMS was between 30 and 40 g/kg/day, which is similar to that of mother's milk and is required for normal growth. One of the RMS fed groups was also given a supplement of 1×10^8 cfu/L/kg/day LGG. The other group was fed RMS alone, without LGG supplementation. All of the gastrostomy-fed groups received the same quantity of fat and carbohydrates.
Lipopolysaccharide (LPS) from Escherichia coli 0127:B8 (LPS; Sigma, St. Louis, Mo.) was dissolved in water by vortexing at a concentration of 2 mg/ml. The gastrostomy-fed rats were given between 0.25 and 0.5 mg/kg/day of LPS via the gastrostomy tube starting 2 days after the initiation of artificial feeding. The pups were given LPS supplementation for 6 days. This dose was determined in pilot studies to result in occasional shivering, piloerection, and poor weight gain but was not associated with a significant increase in mortality over a 6-day period.
At the end of the 6-day treatment period, the rat pups were euthanized with an overdose of pentobarbital sodium. The small intestine was removed and separated into three parts: the ileum, jejunum, and duodenum, stored at −80° C. for enzyme assays and ELISA, or fixed in 10% neutral buffered formalin for intestinal morphology. Lung, liver and plasma were stored at −80° C. for enzyme assays and ELISA.
This example illustrates the effect of LGG on CINC-1. Small intestine and plasma CINC-1 levels were determined by TiterZyme Enzyme Immunometric Assay kits for rat growth-related oncogene/CINC-1 (Assay Designs, Ann Arbor, Mich.). Absorbance was determined at 450 nm, and concentration was calculated using the equation derived from a linear standard curve.
To further investigate the effects of the diets on CINC-1 peptide, CINC-1 production was evaluated by ELISA in the small intestine, liver, lung and plasma. In an initial experiment, LPS administration to rat pups caused an approximate 4-fold elevation in CINC-1 over non-LPS treated pups fed by gastrostomy (data not shown). […] In the liver and plasma, LGG supplementation reduced CINC-1 levels to a level which was very similar to that of mother's milk-fed rat pups.

[1] = system: cytokine/chemokine levels; assay: Multiplex bead cytokine assay, liver cytokine/chemokine levels
Text: (§1) This example describes the materials and methods necessary to show the effect of LGG on formula-fed neonatal rat pups. In two separate experiments, ten Sprague-Dawley (Taconic, Germantown, N.Y.) infant rats were randomly assigned to two gastrostomy feeding groups with five rats per group. Gastrostomy feeding, using the rat infant “pup-in-the-cup” model, began on day 7 of life of the rat pups. The gastrostomy feeding tubes were constructed from 14-cm sections of polyethylene tubing that were inserted into the stomach of the pups. This is a commonly used model in studies of developmental nutrition when it is important to manipulate nutritional composition in the absence of maternal feedings. […]
(§2) During a 2-day acclimation period, the gastrostomy-fed rat pups were fed with rat milk substitute (RMS). […] All of the gastrostomy-fed groups received the same quantity of fat and carbohydrates.
(§3) Lipopolysaccharide (LPS) from Escherichia coli 0127:B8 (LPS; Sigma, St. Louis, Mo.) was dissolved in water by vortexing at a concentration of 2 mg/ml. […] This dose was determined in pilot studies to result in occasional shivering, piloerection, and poor weight gain but was not associated with a significant increase in mortality over a 6-day period. […]
(§4) To further investigate the effects of LPS and LGG on cytokines, 14 cytokines/chemokines from lung, liver, plasma and distal small intestine were analyzed. […]

ileum intestinal mucosa = assay: Intestinal morphology of ileum (H&E stain) in LPS-treated rat pups
Text: (§5) This example describes the materials and methods necessary to show the effect of LGG on formula-fed neonatal rat pups. In two separate experiments, ten Sprague-Dawley (Taconic, Germantown, N.Y.) infant rats were randomly assigned to two gastrostomy feeding groups with five rats per group. Gastrostomy feeding, using the rat infant “pup-in-the-cup” model, began on day 7 of life of the rat pups. The gastrostomy feeding tubes were constructed from 14-cm sections of polyethylene tubing that were inserted into the stomach of the pups. This is a commonly used model in studies of developmental nutrition when it is important to manipulate nutritional composition in the absence of maternal feedings. The gastrostomy placement was done under isoflurane anesthesia. […]
as §2, §3

IL-18 = assay: Multiplex bead cytokine assay, IL-18
Text: as §1, §2, §3, §4

[2] = Growth (body weight) of gastrostomy-fed, LPS-treated rat pups; details: LGG 1×10^8 cfu/L/kg/day
Text: as §5, §2, §3

IL-1β = assay: Multiplex bead cytokine assay, IL-1β
Text: as §1, §2, §3, §4

GRO/KC (rat CINC-1) = assay: Multiplex bead cytokine assay, GRO/KC
Text: as §1, §2, §3, §4

TNF-α [3] = assay: TNF-α production by ELISA in plasma and lung of rat pups
Text: as §1, §2, §3
To further investigate the effects of the diets on TNF-α, TNF-α production was evaluated by ELISA in the plasma and lung. […]

TNF-α [4] = assay: Multiplex bead cytokine assay, TNF-α
Text: as §1, §2, §3, §4

MPO = MPO activity in distal small intestine and lung of rat pups
Text: as §1, §2, §3
This example illustrates the effect of LGG on MPO levels. […] MPO concentration of the supernatant was measured by the H2O2-dependent oxidation of tetramethylbenzidine. […]

IL-6 = assay: Multiplex bead cytokine assay, IL-6
Text: as §1, §2, §3, §4

IL-10 = assay: Multiplex bead cytokine assay, IL-10
Text: as §1, §2, §3, §4

## Lipopolysaccharide (LPS) from Escherichia coli 0127:B8 [reference compound]
CINC-1; initial experiment, over non-LPS treated pups fed by gastrostomy (data not shown)
  elevation in CINC-1: approximately 4 fold
CINC-1; liver, LPS treated group that did not receive LGG
  liver CINC-1 concentration, fold as high: ~2 fold
CINC-1; lung, LPS treatment compared to mother-fed controls
  lung CINC-1 elevation: approximately 4 fold
CINC-1; plasma, LPS treated group that did not receive LGG
  plasma CINC-1 concentration, fold as high: ~2 fold

## Lactobacillus rhamnosus GG [LGG]
[1]
  LPS induced increase of cytokine/chemokine levels in the liver: blunted
Ileum intestinal mucosa; LPS plus LGG group vs LPS group
  ileum histological features (metaplasia, lymphoplasmacytic infiltrate, thinning of muscularis mucosa, regenerative crypt changes): attenuated
Ileum intestinal mucosa; LPS/LGG group vs mother's milk-fed rat pups
  physical damage in the intestinal mucosa: reduced to a level similar to that of mother's milk-fed rat pups
IL-18; lung
  LPS induced elevation of IL-18, lung: significantly blunted
IL-18; plasma
  LPS induced elevation of IL-18, plasma: significantly blunted
[2]
  weight gain: did not improve weight gain
IL-1β; lung
  LPS induced elevation of IL-1β, lung: significantly blunted
IL-1β; plasma
  LPS induced elevation of IL-1β, plasma: significantly blunted
GRO/KC (rat CINC-1); lung
  LPS induced elevation of GRO/KC (rat CINC-1), lung: significantly blunted
GRO/KC (rat CINC-1); plasma
  LPS induced elevation of GRO/KC (rat CINC-1), plasma: significantly blunted
TNF-α [3]; lung
  LPS induced elevation of TNF-α, lung: significantly blunted
TNF-α [3]; plasma
  LPS induced elevation of TNF-α, plasma: significantly blunted
TNF-α [4]
  LPS induced elevation of TNF-α, lung: significantly blunted
MPO; distal small intestine
  LPS induced elevation of MPO, distal small intestine: significantly blunted
MPO; lung
  LPS induced elevation of MPO, lung: significantly blunted
CINC-1; liver, LPS/LGG vs LPS
  liver CINC-1 concentration: significantly attenuated
CINC-1; lung, LPS/LGG vs LPS
  lung CINC-1: significantly attenuated
CINC-1; plasma, LPS/LGG vs LPS
  plasma CINC-1 concentration: significantly attenuated
CINC-1; small intestine, LPS vs LPS/LGG vs mother-fed
  intestinal CINC-1 levels: did not differ significantly among the 3 groups
IL-6; lung
  LPS induced elevation of IL-6, lung: significantly blunted
IL-6; plasma
  LPS induced elevation of IL-6, plasma: significantly blunted
IL-10
  LPS induced elevation of IL-10, lung: significantly blunted
